Data on two compounds can be found in patent US20030134851A1, “Methods and compositions for providing glutamine” (priority 2001, published 2003).

Entries after “also recorded” stand apart in the source; their conditions may differ. Marks after values point to notes of the source that are not given here.

This series is described as follows: Stability in liquid nutritional type products during retort sterilization and room temperature storage. It counts as physicochemical. How it is done: In order to test the stability of N-acetyl-L-glutamine in a matrix similar to that found in liquid nutritional type products, the following procedure was followed. […] The product containing N-acetyl-L-glutamine was made according to the procedure set forth above in Example 1. The product containing glutamine was made in a similar manner, except […].79 kg) was substituted for N-acetyl-L-glutamine. The products were assessed for degradation before and after a retort sterilization process, which is typical for liquid nutritional processing (here, 128° C. for 5 minutes). The products were stored at room temperature (20-22° C.) and assessed for evidence of degradation at 1, 2 and 3 months. Glutamine, N-acetyl-L-glutamine and pyroglutamic acid (if present) were quantified at each process and time point. In order to analyze by HPLC for glutamine, N-acetyl-L-glutamine and pyroglutamic acid, samples were filtered as follows. A 5.0 mL aliquot was transferred to a 50 mL volumetric flask. Twenty drops of 1 M hydrochloric acid was added and the sample was diluted to volume with deionized water. An aliquot was filtered through a 0.45 micron filter (Millipore, Millex®-HV, 25 mm). The samples were analyzed by HPLC as described above (Heat Stability section). The total amount of pyroglutamic acid present in the protein formula, including both free pyroglutamic acid and N-terminal pyroglutamic acid, can be determined by the following method. Initially, samples were prepared as a water solution to a concentration of approximately 18 g total protein/L. A 20 microliter aliquot of the prepared sample material was placed in a 1.5 mL screw cap vial, and 980 microliters of a freshly prepared enzyme solution (0.05 M Tris, 0.005 M dithiothreitol, 0.001 M disodium ethylenediaminetetraacetic acid (EDTA), pH 8.0, containing 11 units of pyroglutamate aminopeptidase/mL) was added. The vial was tightly capped, and incubated at room temperature (21-24° C.) for 24 hours. The solution was then processed through a C-18 SPE cartridge as detailed below. For free pyroglutamic acid determination, the initial sample solution was diluted to a total protein content of 2-3 g/L in deionized water, and processed through a C-18 SPE cartridge. C-18 SPE (Solid Phase Extraction) cartridges (100 mg/1 mL size) were obtained from Burdick & Jackson, Muskegon, Mich. SPE cartridges were prepared for use with 2×5 volumes of methanol, and then rinsed with 2×5 volumes of deionized water. The 1 mL sample is then slowly applied, and flow-through material collected in a […] screw cap vial. Elution was completed by applying 2×500 microliters of deionized water, collecting pass through volume in the same vial. The eluate was mixed, and then an aliquot filtered through a 0.45 micrometer filter prior to HPLC analysis (25 mm, 0.45 micrometer filters were obtained from Gelman, Ann Arbor, Mich.). The HPLC system used had the following parameters: pump model G1312A, autosampler model G1313A, thermostatted column compartment model G1316A, diode array detector model G1315A, and peak integrator/data processor model […], all obtained from Agilent Technologies, Palo Alto, Calif. Column: 6.5×150 mm ION-310, 8 micrometer from Interaction Chromatography, San Jose, Calif. The system was pre-equilibrated in mobile phase (5 mN H2SO4) at 40° C. at 0.3 mL/min. prior to use. For analysis a 10 microliter aliquot of sample or standard was injected, and the column was eluted with mobile phase at 0.3 mL/min. and 40° C. Eluting materials were detected by UV absorption at 210 nm and 220 nm. The run time was 45 min. Unknown sample concentrations were determined by comparison to standards. Three aqueous solutions of pyroglutamic acid are usually sufficient as standards, i.e., 10, 20, and 40 mg/L (pyroglutamic acid obtained from Fluka, Milwaukee, Wis.).

The mark [1] stands for this setting: 1 month at room temperature after sterilization.
The mark [2] stands for this setting: 2 months at room temperature after sterilization.
The mark [3] stands for this setting: 3 months at room temperature after sterilization.
[4] abbreviates: Post-Sterilization (retort, 128° C. for 5 minutes).

`NC(=O)CC[C@H](N)C(=O)O` [Glutamine, glutamine]: the “Glutamine in product with glutamine” value is 13.7 mmol/L product under setting [1]; “no glutamine was detected; also recorded: trace” under setting [2]; “none” under setting [3]; 34.2 mmol/L product under setting [4]; 97.8 mmol/L product (liquid nutritional type product, Pre-Sterilization (theoretical 87.6)). The “pyroglutamic acid in product with glutamine” value was 92.9* mmol/L product (1 month, calculated with response factor from glutamine standard); 79.8** mmol/L product (2 months, calculated with response factor from pyroglutamic acid standard); 80.6** mmol/L product (3 months, calculated with response factor from pyroglutamic acid standard); 77.5* mmol/L product (Post-Sterilization, calculated with response factor from glutamine standard); 27.1* mmol/L product (Pre-Sterilization, calculated with response factor from glutamine standard). The “Glutamine remaining as fraction of the original concentration” value (glutamine supplemented product, after the sterilization process) is “about ⅓”.

As for `CC(=O)N[C@@H](CCC(N)=O)C(=O)O` [N-acetyl-L-glutamine], the “N-acetyl-L-glutamine in product with N-acetyl-L-glutamine” value came out at 89.8 mmol/L product under setting [1]; 94.1 mmol/L product under setting [2]; 89.3 mmol/L product under setting [3]; 89.8 mmol/L product under setting [4]; 92.5 mmol/L product (liquid nutritional type product, Pre-Sterilization (theoretical 87.7)). The “Degradation in the liquid nutritional type product (in words)” value (during sterilization or after 3 months room temperature storage) was “no degradation”.
